Data reported in patent US8846659B2 (priority 2010, dated 2014).
Counter-ions that a name gives are not always drawn.

Legend:
[1] = test system: recombinant NL-Rluc virus; experiment: Inhibition of HIV replication: susceptibility of recombinant NL-Rluc virus to compounds; type: cell-based; conditions: Human immunodeficiency virus 1, read-out: Activity (EC50, 50% effective concentration)
HIV integrase = HIV integrase (Human immunodeficiency virus type 1 group M subtype B, UniProt P12497); experiment: HIV-integrase inhibition activity: inhibition of [3H]BMS-641493 binding to enzyme-SPA bead complexes; conditions: competition with [3H]BMS-641493, enzyme-SPA bead complexes; read-out: Activity (Ki toward integrase)
Excerpt: HIV-Integrase Inhibition Activity.
Radiolabeled integrase inhibitor, BMS-641493 was used as a known reference ligand to determine the binding constants towards the integrase enzyme of the compounds described in this invention using a method similar to that described in; Dicker et al. J. Biological Chem. 2007, 282, 31186-31196; Dicker et al. J. Biol. Chem. 2008, 283, 23599-23609 and Dicker et al. Biochemistry 2008, 47, 13481-13488. BMS-641493 is a known active-site binding inhibitor as it can be competed […] for [3H]BMS-641493 were determined from fitting data to a saturation binding curve using Graphpad Prism, V4.01. The Ki measurement toward integrase was made by measuring the inhibition of binding of [3H]BMS-641493 to enzyme-SPA bead complexes in the presence of serial dilutions of the test compounds. The Ki value was determined from the [3H]BMS-641493 Kd and the inhibition binding curve using Graphpad Prism, V4.03.

`NC12CCC(CC1)Cn1c2nc(-c2ncc(Cc3ccc(F)cc3)[nH]2)c(O)c1=O` [Example 1, 10-Amino-2-[4-[(4-fluorophenyl)methyl]-1H-imidazol-2-yl]-7,8,9,10-tetrahydro-3-hydroxy-7,10-ethanopyrimido[1,2-a]azepin-4(6H)-one] was tested, and the EC50 [1] was 21 nM.
Work on `CN(C)C(=O)C(=O)NC12CCC(CC1)Cn1c2nc(-c2ncc(Cc3ccc(F)cc3)[nH]2)c(O)c1=O` [Example 2, N′-(2-(4-(4-Fluorobenzyl)-1H-imidazol-2-yl)-3-hydroxy-4-oxo-6,7,8,9-tetrahydro-7,10-ethanopyrimido[1,2-a]azepin-10(4H)-yl)-N,N-dimethylethanediamide] yielded a Ki (HIV integrase) of 21 nM and an EC50 [1] of 5 nM.
`O=C(NC12CCC(CC1)Cn1c2nc(-c2ncc(Cc3ccc(F)cc3)[nH]2)c(O)c1=O)C(=O)N1CCCC1` [Example 3, N-(2-(4-(4-Fluorobenzyl)-1H-imidazol-2-yl)-3-hydroxy-4-oxo-6,7,8,9-tetrahydro-7,10-ethanopyrimido[1,2-a]azepin-10(4H)-yl)-2-oxo-2-(pyrrolidin-1-yl)acetamide] was tested, and the Ki (HIV integrase) was 122 nM and the EC50 [1] was 18 nM.
`Cc1cc(C(=O)NC23CCC(CC2)Cn2c3nc(-c3ncc(Cc4ccc(F)cc4)[nH]3)c(O)c2=O)no1` [Example 4, N-(2-(4-(4-Fluorobenzyl)-1H-imidazol-2-yl)-3-hydroxy-4-oxo-6,7,8,9-tetrahydro-7,10-ethanopyrimido[1,2-a]azepin-10(4H)-yl)-5-methyl-1,2-oxazole-3-carboxamide] was tested, and the Ki (HIV integrase) was 21 nM and the EC50 [1] was 8 nM.
`NC12CCC(CC1)Cn1c2nc(-c2ncc(Cc3ccc(F)cc3)s2)c(O)c1=O` [Example 5] gave a Ki (HIV integrase) of 3880 nM and an EC50 [1] of 60 nM.
In the case of `CN(C)C(=O)C(=O)NC12CCC(CC1)Cn1c2nc(-c2ncc(Cc3ccc(F)cc3)s2)c(O)c1=O` [Example 6, N′-(2-(5-(4-Fluorobenzyl)-1,3-thiazol-2-yl)-3-hydroxy-4-oxo-6,7,8,9-tetrahydro-7,10-ethanopyrimido[1,2-a]azepin-10(4H)-yl)-N,N-dimethylethanediamide], the Ki (HIV integrase) is reported as 400 nM and the EC50 [1] is reported as 1 nM.
`CN(C)C(=O)C(=O)NC12CCC(CC1)Cn1c2nc(-c2nnc(Cc3ccc(F)cc3)o2)c(O)c1=O` [Example 7, N′-(2-(5-(4-Fluorobenzyl)-1,3,4-oxadiazol-2-yl)-3-hydroxy-4-oxo-6,7,8,9-tetrahydro-7,10-ethanopyrimido[1,2-a]azepin-10(4H)-yl)-N,N-dimethylethanediamide] showed a Ki (HIV integrase) of 222 nM and an EC50 [1] of 2 nM.
With `CN(C)C(=O)C(=O)NC12CCC(CC1)Cn1c2nc(-c2ncc(Cc3ccc(F)cc3)o2)c(O)c1=O` [Example 8, N′-(4-(5-(4-Fluorobenzyl)-1,3-oxazol-2-yl)-3-hydroxy-4-oxo-6,7,8,9-tetrahydro-7,10-ethanopyrimido[1,2-a]azepin-10(4H)-yl)-N,N-dimethylethanediamide] the Ki (HIV integrase) was 115 nM and the EC50 [1] was 0.4 nM.
In the case of `CN(C)C(=O)C(=O)NC12CCC(CC1)Cn1c2nc(-c2ncn(Cc3ccc(F)cc3)n2)c(O)c1=O` [Example 9, N′-[2-[1-[(4-Fluorophenyl)methyl]-1H-1,2,4-triazol-3-yl]-6,7,8,9-tetrahydro-3-hydroxy-4-oxo-7,10-ethanopyrimido[1,2-a]azepin-10(4H)-yl]-N,N-dimethylethanediamide], the Ki (HIV integrase) is reported as 1070 nM.
Compound `Cc1cc(Cc2cnc(-c3nc4n(c(=O)c3O)CC3CCC4(NC(=O)C(=O)N(C)C)CC3)[nH]2)ccc1F` [Example 10, N′-[2-[4-[(4-Fluoro-3-methylphenyl)methyl]-1H-imidazol-2-yl]-6,7,8,9-tetrahydro-3-hydroxy-4-oxo-7,10-ethanopyrimido[1,2-a]azepin-10(4H)-yl]-N,N-dimethyl-ethanediamide trifluoroacetate salt] has a Ki (HIV integrase) of 9 nM and an EC50 [1] of 6 nM.
`Cc1cc(Cc2cnc(-c3nc4n(c(=O)c3O)CC3CCC4(NC(=O)c4cccnc4)CC3)[nH]2)ccc1F` [Example 11, N-[2-[4-[(4-Fluoro-3-methylphenyl)methyl]-1H-imidazol-2-yl]-6,7,8,9-tetrahydro-3-hydroxy-4-oxo-7,10-ethanopyrimido[1,2-a]azepin-10(4H)-yl]-3-pyridinecarboxamide trifluoroacetate salt] showed a Ki (HIV integrase) of 19 nM and an EC50 [1] of 24 nM.
In the case of `Cc1cc(Cc2cnc(-c3nc4n(c(=O)c3O)CC3CCC4(NC(=O)c4cccnn4)CC3)[nH]2)ccc1F` [Example 12, N-[2-[4-[(4-Fluoro-3-methylphenyl)methyl]-1H-imidazol-2-yl]-6,7,8,9-tetrahydro-3-hydroxy-4-oxo-7,10-ethanopyrimido[1,2-a]azepin-10(4H)-yl]-3-pyridazinecarboxamide trifluoroacetate salt], the Ki (HIV integrase) is reported as 13 nM and the EC50 [1] is reported as 8 nM.
`CN(C)C(=O)C(=O)N(C)C12CCC(CC1)Cn1c2nc(-c2ncc(Cc3ccc(F)cc3)[nH]2)c(O)c1=O` [Example 13, N-[2-[4-[(4-Fluorophenyl)methyl]-1H-imidazol-2-yl]-6,7,8,9-tetrahydro-3-hydroxy-4-oxo-7,10-ethanopyrimido[1,2-a]azepin-10(4H)-yl]-N,N′,N′-trimethyl-ethanediamide trifluoroacetate salt] showed a Ki (HIV integrase) of 13 nM and an EC50 [1] of 2 nM.
`Cc1cc(Cc2c[nH]c(-c3nc4n(c(=O)c3O)CC3CCC4(NC(=O)C(C)(C)n4cncn4)CC3)n2)ccc1F` [Example 14, N-[2-[4-[(4-Fluoro-3-methylphenyl)methyl]-1H-imidazol-2-yl]-6,7,8,9-tetrahydro-3-hydroxy-4-oxo-7,10-ethanopyrimido[1,2-a]azepin-10(4H)-yl]-alpha,alpha-dimethyl-1H-1,2,4-triazole-1-acetamide trifluoroacetate salt] was tested, and the Ki (HIV integrase) was 41 nM and the EC50 [1] was 7 nM.
Compound `CC(=O)N(C)C1(C(=O)NC23CCC(CC2)Cn2c3nc(-c3ncc(Cc4ccc(F)c(C)c4)[nH]3)c(O)c2=O)CC1` [Example 15, 1-(Acetylmethylamino)-N-[2-[4-[(4-fluoro-3-methylphenyl)methyl]-1H-imidazol-2-yl]-6,7,8,9-tetrahydro-3-hydroxy-4-oxo-7,10-ethanopyrimido[1,2-a]azepin-10(4H)-yl]-cyclopropanecarboxamide trifluoroacetate salt] has a Ki (HIV integrase) of 57 nM and an EC50 [1] of 53 nM.
`CN(C)C(=O)C(=O)NC12CCC(CC1)Cn1c2nc(-c2nnc(Cc3ccc(F)cc3)s2)c(O)c1=O` [Example 16, N′-[2-[5-[(4-Fluorophenyl)methyl]-1,3,4-thiadiazol-2-yl]-6,7,8,9-tetrahydro-3-hydroxy-4-oxo-7,10-ethanopyrimido[1,2-a]azepin-10(4H)-yl]-N,N-dimethylethanediamide] was tested, and the Ki (HIV integrase) was 1470 nM and the EC50 [1] was 21 nM.
`Cc1cc(Cc2c[nH]c(-c3nc4n(c(=O)c3O)CC3CCC4(N(C)C(=O)C(=O)N(C)C)CC3)n2)ccc1F` [Example 17, N-[2-[4-[(4-Fluoro-3-methylphenyl)methyl]-1H-imidazol-2-yl]-6,7,8,9-tetrahydro-3-hydroxy-4-oxo-7,10-ethanopyrimido[1,2-a]azepin-10(4H)-yl]-N,N′,N′-trimethyl-ethanediamide trifluoroacetate salt] showed a Ki (HIV integrase) of 10 nM and an EC50 [1] of 5 nM.
`Cc1cc(Cc2cnc(-c3nc4n(c(=O)c3O)CC3CCC4(NC(=O)c4ccn(C)n4)CC3)[nH]2)ccc1F` [Example 18, N-[2-[4-[(4-Fluoro-3-methylphenyl)methyl]-1H-imidazol-2-yl]-6,7,8,9-tetrahydro-3-hydroxy-4-oxo-7,10-ethanopyrimido[1,2-a]azepin-10(4H)-yl]-1-methyl-1H-pyrazole-3-carboxamide] gave a Ki (HIV integrase) of 16 nM and an EC50 [1] of 5 nM.
